Experimental data as given in patent publication US10118954B2, “Apelin analogues” (University of Ulster, priority 2014, dated 2018).

Legend:
[1] = Degradation of apelin peptides by plasma from fasted normal NIH Swiss mice (rp-HPLC, MALDI-TOF MS); format: in vitro ADME
Protocol: Degradation of Apelin Peptides by Plasma from Fasted Normal NIH Swiss Mice […] The enzymatic reaction was stopped by adding 50 μl of 10% TFA (0.1% v/v; Sigma-Aldrich Ltd, (Poole, Dorset, UK) and frozen at -20° C. until separation. The terminated reaction products were then applied to an analytical Vydac C-8 column (4.6×150 mm; Phenomenex, Macclesfield, Cheshire, UK) for rp-HPLC analysis. The absorbance was monitored at 214 nm using a […] UV 2000 detector (Thermoquest Limited, Manchester, UK) and the traces were recorded by Thermo Electron ChromQuest data collection software (version 4). HPLC peak fractions were collected manually and subjected to MALDI-TOF mass spectrometry for peptide identification. Degradation profile of various apelin-13 related analogues: plasma incubations (4 h) were separated on a Vydac C-8 analytical HPLC column and all peaks were collected prior to analysis by MALDI-TOF mass spectrometry. Degradation fragments, actual molecular weights (Mr) and retention times (RT) are shown. Theoretical molecular weights of each fragment are shown in brackets. […] Degradation fragments, theoretical molecular weights (Mr) and retention times (RT) are shown. Theoretical molecular weights of each fragment are shown in brackets.

[2] = system: NIH Swiss mice fed a high-fat diet for 150 days; test: Acute and delayed i.p. glucose tolerance test, blood glucose and plasma insulin; format: in vivo; conditions: for Effect on the glucose lowering properties of (Tyr^13)apelin-13 and apelin-13-amide: administered in combination, each 25 nmol/kg
Protocol: Plasma glucose and plasma insulin concentrations were measured prior to and after i.p. administration of glucose alone (18 mmol/kg body weight), or in combination with apelin analogues (25 nmol/kg body weight) in 18 h fasted mice fed a high-fat diet for 150 days. Values represent mean±SEM for eight mice (n=8). *P<0.05, **P<0.01 and ***P<0.001 compared to glucose alone. FIG. 6 illustrates effect of i.p. administration of glucose alone (18 mmol/kg body weight), ([…])apelin-13 and ([…])apelin-13 alone or in combination (each 25 nmol/kg body weight) on (A) blood glucose and (B) plasma insulin in 18 h fasted mice fed a high-fat diet for 150 days. Values represent mean±SEM for eight mice (n=8). *p<0.05 and **p<0.01 compared to glucose alone, ^+P<0.05 compared to ([…])apelin-13, ^∇P<0.05 and ^∇∇P<0.01 compared to ([…])apelin-13. FIG. 10 illustrates tests conducted 2 h after administration of apelin related analogues (25 nmol/kg body wt) in 18 h fasted mice fed a high-fat diet for 150 days. (A) Blood glucose and (B) plasma insulin was measured before and after i.p. administration of glucose (18 mmol/kg body wt) alone or in combination with apelin analogues. Values represent mean±SEM for eight mice (n=8). *P<0.05 and **P<0.01 compared to glucose alone. FIG. 11 illustrates tests conducted 8 h after administration of apelin related analogues (25 nmol/kg body wt) in 18 h fasted mice fed a high-fat diet for 150 days. (A) Blood glucose and (B) plasma insulin was measured before and after i.p. administration of glucose (18 mmol/kg body wt) alone or in combination with apelin analogues. Values represent mean±SEM for eight mice (n=8). *P<0.05 and **P<0.01 compared to glucose alone. FIG. 12 illustrates acute effects of fatty acid modified apelin analogues on glucose-lowering and insulin release in high fat fed Swiss NIH mice with dietary-induced diabetes. (A) Blood glucose and (B) plasma insulin concentrations were measured prior to and after i.p. administration of glucose alone (18 mmol/kg body weight), or in combination with apelin analogues (25 nmol/kg body weight) in 18 h fasted mice fed a high-fat diet for 150 days. Values represent mean±SEM for eight mice (n=8). *P<0.05, compared to glucose alone. FIG. 13 illustrates tests conducted 16 h after administration of fatty acid apelin analogues (25 nmol/kg body wt) in mice fed a high-fat diet for 150 days. (A) Blood glucose and (B) plasma insulin was measured before and after i.p. administration of glucose (18 mmol/kg body wt) alone or in combination with apelin analogues. Values represent mean±SEM for eight mice (n=8). *P<0.05, **P<0.01 and ***P<0.001 compared to glucose alone. NIH Swiss mice (Harlan UK Ltd., Blackthorne, UK) were derived from a nucleus colony obtained from the National Institute of Health, Bethesda, Md., USA. One group of mice were maintained on a standard rodent diet (10% fat, 30% protein, 60% carbohydrate; percent of total energy 12.99 kJ/g, Trouw Nutrition, Cheshire, UK) and used as a model of normal glycaemia. Other NIH Swiss mice were maintained on a high fat diet (45% fat, 20% protein, 35% carbohydrate; percent of total energy 26.15 […], UK) from 8 weeks of age for 150 days to produce a model of diet induced obesity-diabetes. […] All mice were housed in an air-conditioned room maintained at 22±2° C. with a 12 h light: 12 h dark cycle (08:00-20:00 h), were singly caged, and selected for experimental groups according to body weight and non-fasted blood glucose. Drinking water and diet were freely available. All animal studies were performed in accordance with the UK Animals (Scientific Procedures) Act 1986. For acute in vivo studies, blood samples were collected from the cut tip of the tail vain of fasted, conscious mice into fluoride/heparin coated glucose microcentrifuge tubes (Sarstedt, Germany) immediately prior to (t=0) and at 15, 30, 60 and 105 min following i.p. injection of glucose ([…]).

[3] = system: high fat fed NIH Swiss mice; test: 28 day long-term study of fatty acid apelin analogues, once daily i.p. administration; format: in vivo
From the text: NIH Swiss mice (Harlan UK Ltd., Blackthorne, UK) were derived from a nucleus colony obtained from the National Institute of Health, Bethesda, Md., USA. One group of mice were maintained on a standard rodent diet (10% fat, 30% protein, 60% carbohydrate; percent of total energy 12.99 kJ/g, Trouw Nutrition, Cheshire, UK) and used as a model of normal glycaemia. Other NIH Swiss mice were maintained on a high fat diet (45% fat, 20% protein, 35% carbohydrate; percent of total energy 26.15 kJ/g; Dietex, Essex, UK) from 8 weeks of age for 150 days to produce a model of diet induced obesity-diabetes. […] All mice were housed in an air-conditioned room maintained at 22±2° C. with a 12 h light: 12 h dark cycle (08:00-20:00 h), were singly caged, and selected for experimental groups according to body weight and non-fasted blood glucose. Drinking water and diet were freely available. All animal studies were performed in accordance with the UK Animals (Scientific Procedures) Act 1986.
For another 28 day long-term study of selected fatty acid apelin analogues administered once daily, normal control NIH Swiss (n=8) and high-fat fed NIH Swiss (n=8) were grouped and received once daily i.p. injections of saline vehicle (0.9% NaCl (w/v)) at 17:00 h over a 4 day run-in period. Following the run-in period, normal control (n=8) and high-fat fed mice (n=8) received once daily (17:00 h) i.p. administration of saline vehicle (0.9% NaCl (w/v)) for 28 days. Additional groups of high-fat fed mice (n=8) received once daily i.p. injections of (Lys^8gluPal)apelin-13-amide, pGlu(Lys^8gluPal)apelin-13-amide or liraglutide (each at 25 nmol/kg bw) over a 28 day treatment period.
Food intake, body weight, blood glucose and plasma insulin were monitored at intervals of 2-3 days throughout the run-in and 28 day treatment period. Blood samples for glucose and plasma insulin measurement were collected at intervals throughout the study from the cut tail vein of conscious mice. Following the 28 day treatment period, oral, i.p. and meal test glucose tolerance ([…].), and insulin sensitivity (25 U/kg bw) tests were performed. Glucose was measured using an Ascensia Contour meter and blood was collected and processed for plasma insulin analysis by radioimmunoassay. Body weight and fat mass was also assessed using the PIXImus DEXA scanner whilst energy expenditure, intake, food intake and feeding bouts were assessed using the CLAMS metabolic chamber. HbA1c was analysed post 28 days using Bayer A1C Now^+ Multi Test meter. Lipid profile test was obtained by using the iLab analyser. Cholesterol, triglyceride and HDL-cholesterol levels were measured, in plasma (3 μl), using the iLab analyser. LDL-cholesterol levels were obtained using the Friedewald equation=total cholesterol−HDL−(triglycerides/3).

[4] = NIH Swiss, mouse, plasma, pH 7.4
[5] = acute, alone and in combination, each 25 nmol/kg i.p. with glucose, Table 5
[6] = acute, peptide 25 nmol/kg i.p. with glucose 18 mmol/kg, Table 4
[7] = fatty acid derived agonists, 16 h delayed i.p. glucose tolerance test, 25 nmol/kg
[8] = fatty acid derived agonists, acute i.p. glucose tolerance test, 25 nmol/kg
[9] = once daily 25 nmol/kg bw, 28 days

SMILES | Degradation fragment, Peak 1 [1] | Rank order of stability [1] | half-life at 263 µg/mL [1, 4] | remaining at 4 h, 263 µg/mL [1, 4] | Rank order on basis of anti-hyperglycaemic efficacy ([2]; acute, Table 4) | Glucose lowering, where glucose alone = 100% [2, 5] | Insulin secretion, where glucose alone = 100% [2, 5] | Blood glucose as percent of glucose-alone control (lower = stronger glucose lowering) [2, 6] | Insulin secretion, where glucose alone = 100% [2, 6] | Effect on the glucose lowering properties of (Tyr^13)apelin-13 and apelin-13-amide [2] | also measured
CSCC[C@H](NC(=O)[C@@H]1CCCN1C(=O)CNC(=O)[C@H](CCCCN)NC(=O)[C@H](Cc1c[nH]cn1)NC(=O)[C@H](CO)NC(=O)[C@H](CC(C)C)NC(=O)[C@H](CCCNC(=N)N)NC(=O)[C@@H]1CCCN1C(=O)[C@H](CCCNC(=N)N)NC(=O)[C@@H](N)CCC(N)=O)C(=O)N1CCC[C@H]1C(=O)N[C@@H](C)C(=O)O [(Ala^13)apelin-13, reference compound] | (Ala^13)apelin-13 (1-8) | 8 | 618 min | 70.5 ± 2.2% | 9 | 118% (*) | 74% (*) | 118% (*) | 74% (**) | blocked the glucose lowering properties | Degradation fragment, Peak 2 [1]: (Ala^13)apelin-13 (1-11)
CSCC[C@H](NC(=O)[C@@H]1CCCN1C(=O)CNC(=O)[C@H](CCCCN)NC(=O)[C@H](Cc1c[nH]cn1)NC(=O)[C@H](CO)NC(=O)[C@H](CC(C)C)NC(=O)[C@H](CCCNC(=N)N)NC(=O)[C@@H]1CCCN1C(=O)[C@H](CCCNC(=N)N)NC(=O)[C@@H](N)CCC(N)=O)C(=O)N1CCC[C@H]1C(=O)N[C@H](C(=O)O)C(C)C [(Val^13)apelin-13] | (Val^13)apelin-13 (1-12) | 11 | 462 min | 66.5 ± 1.1% | 10 | 124% (**) | 68% (**) | 124% (**) | 68% (*) | blocked the glucose lowering properties | –
CCCCCCCCCCCCCCCC(=O)N[C@@H](CCC(=O)NCCCC[C@H](NC(=O)[C@H](Cc1c[nH]cn1)NC(=O)[C@H](CO)NC(=O)[C@H](CC(C)C)NC(=O)[C@H](CCCNC(=N)N)NC(=O)[C@@H]1CCCN1C(=O)[C@H](CCCNC(=N)N)NC(=O)[C@@H](N)CCC(N)=O)C(=O)NCC(=O)N1CCC[C@H]1C(=O)N[C@@H](CCSC)C(=O)N1CCC[C@H]1C(=O)N[C@@H](Cc1ccccc1)C(N)=O)C(=O)O [(Lys^8GluPAL)apelin-13-amide] | – | =1 | > 1440 min | 100% | – | – | – | – | – | – | Half-life (t1/2) ([1]; NIH Swiss, mouse, plasma, 263 µg/mL, pH 7.4): >24 h; Rank order on basis of anti-hyperglycaemic efficacy ([2]; fatty acid derived agonists, 16 h delay): 2; Blood glucose as percent of glucose-alone control (lower = stronger glucose lowering) [2, 7]: 61% (**); Insulin secretion, where glucose alone = 100% [2, 7]: 156% (***); Rank order on basis of anti-hyperglycaemic efficacy ([2]; fatty acid derived agonists, acute): 2; Glucose lowering, where glucose alone = 100% [2, 8]: 85%; Insulin secretion, where glucose alone = 100% [2, 8]: 110%; Percentage fat mass ([3]; after 28 days, DEXA analysis): 30.8%; Insulin sensitivity ([3]; after 28 days, insulin 25 U/kg bw): significantly improved; Glucose tolerance and plasma insulin excursion in response to an i.p and oral glucose challenge ([3]; after the 28 day treatment period): significantly improved; HDL-cholesterol levels compared to the lean control and high fat fed mice ([3]; once daily): significantly increased; Bodyweight reduction [3, 9]: approximately 4%; Day of study at which bodyweight was significantly decreased [3, 9]: 21 days; Day of study at which circulating blood glucose began to be significantly reduced and plasma insulin increased [3, 9]: 10 days; Day of study at which food intake was significantly reduced [3, 9]: 8 days; LDL-cholesterol levels compared to the high fat fed controls ([3]; once daily, Friedewald equation): significantly lowered; Plasma triglyceride levels ([3]; once daily, high-fat fed mice): significantly lower
